According to patent US11135252B2, “Probiotic therapies for developmental disorders and other neurological disorders” (Baylor College of Medicine, priority 2016, dated 2021):

Assays:
[1] = tested on: MHFD offspring; test: Reciprocal social interaction test in MHFD offspring; assay type: in vivo, mice
Description: Animal care and experimental procedures were approved by Baylor College of Medicine's Institutional Animal Care and Use Committee in accordance with all guidelines set forth by the U.S. National Institutes of Health. Reciprocal Social Interaction. Mice were placed in a 25×25×25 cm Plexiglass arena, to which they had not been previously habituated, with either a familiar (cage-mate) or stranger age- and sex-matched conspecific. In all experiments, paired mice were matched for maternal diet, colonization source, and/or treatment. We recorded the time a pair of mice engaged in social interaction (close following, touching, nose-to-nose sniffing, nose-to-anus sniffing, and/or crawling over/under each other). The human observer was blind to maternal diet and/or treatment group. Social behavior was analyzed with AnyMaze automated software. Lactobacillus reuteri MM4-1A (ATCC-PTA-6475) and Lactobacillus johnsonii (ATCC 33200) were cultured anaerobically in MRS broth in a 90% N2, 5% CO2, 5% H2 environment. L. reuteri was heat-killed by keeping the bacteria at 80° C. for 20 minutes (Wang et al., 2010). Bacterial viability was assessed by plating and the efficacy of the heat-kill procedure was confirmed by the absence of colony growth following plating. Cultures were centrifuged, washed, and resuspended in anaerobic solution (PBS) and frozen at −80° C. until use. PBS, live or heat-killed L. reuteri were added to the drinking water, which was changed daily to minimize dosage variability. Whereas the experimental group received live bacteria, one control group received identically prepared cultures of heat-killed bacteria. A second group of control mice received water treated with PBS alone. Live and heat-killed L. reuteri were supplied at a dosage of 1×10^8 organisms/mouse/day continuously in drinking water. Mice consumed the treated water ad libitum over the treatment period. The treated drinking water for each group was replaced daily two hours prior to the onset of the dark cycle to minimize variation in microbial exposure. Behavioral assays were initiated after 4-weeks of L. reuteri or control treatment. The protocol of the L. johnsonii preparation and administration matched the L. reuteri protocol. Fecal samples for sequencing and tissue used in the immunofluorescence studies were collected at the end of the treatment. Oxytocin was obtained from Tocris Bioscience (product 1910) and solubilized in 10% dimethyl sulfoxide (DMSO) in PBS. 10% DMSO in PBS was used as the vehicle control. Mice received oxytocin intranasally (at approximately 200 μg/kg) thirty minutes prior to behavior. 1.25 μl of oxytocin or vehicle solution was injected into each nostril from P10 pipette. Oxytocin dose was selected according to dosages reported to rescue social behavior in genetic models phenotypically expressing ASD-like behaviors (Penagarikano et al., 2015).

[2] = tested on: MHFD offspring; test: Three-chamber social test in MHFD offspring; assay type: in vivo, mice; details: for preference for social novelty (time interacting with novel vs familiar mouse) / sociability (time interacting with mouse vs empty cage): in drinking water from weaning for 4 weeks, 1×10^8 organisms/mouse/day; for preference for social novelty / sociability: intranasal oxytocin approximately 200 μg/kg, 30 min prior
Method: Crawley's three-chamber test for sociability and preference for social novelty was performed as described (Silverman et al., 2010). In brief, the mouse first experienced a 10-minute period of habituation during which it was allowed to freely explore a 60×40×23 cm Plexiglass arena divided into three equally sized, interconnected chambers (Left, Center, Right). Sociability was measured during a second ten-minute period in which the subject could interact either with an empty wire cup (Empty) or a wire cup containing an age and sex-matched stranger conspecific (Mouse 1). Time spent interacting (sniffing, crawling upon) with either the empty cup or the stranger mouse contained in the other cup as well as time spent in each chamber was recorded using the AnyMaze software, by independent observers. Empty cup placement in the Left or Right chamber during the Sociability period was counterbalanced between trials. Finally, preference for social novelty was assayed by introducing a second stranger mouse (Mouse 2) into the previously the empty wire cup. Time spent in each chamber as well as time spent interacting with either Mouse 1 or Mouse 2 was recorded using the automated AnyMaze software by independent observers. Lactobacillus reuteri MM4-1A (ATCC-PTA-6475) and Lactobacillus johnsonii (ATCC 33200) were cultured anaerobically in MRS broth in a 90% N2, 5% CO2, 5% H2 environment. L. reuteri was heat-killed by keeping the bacteria at 80° C. for 20 minutes (Wang et al., 2010). Bacterial viability was assessed by plating and the efficacy of the heat-kill procedure was confirmed by the absence of colony growth following plating. Cultures were centrifuged, washed, and resuspended in anaerobic solution (PBS) and frozen at −80° C. until use. PBS, live or heat-killed L. reuteri were added to the drinking water, which was changed daily to minimize dosage variability. Whereas the experimental group received live bacteria, one control group received identically prepared cultures of heat-killed bacteria. A second group of control mice received water treated with PBS alone. Live and heat-killed L. reuteri were supplied at a dosage of 1×10^8 organisms/mouse/day continuously in drinking water. Mice consumed the treated water ad libitum over the treatment period. The treated drinking water for each group was replaced daily two hours prior to the onset of the dark cycle to minimize variation in microbial exposure. Behavioral assays were initiated after 4-weeks of L. reuteri or control treatment. The protocol of the L. johnsonii preparation and administration matched the L. reuteri protocol. Fecal samples for sequencing and tissue used in the immunofluorescence studies were collected at the end of the treatment. Oxytocin was obtained from Tocris Bioscience (product 1910) and solubilized in 10% dimethyl sulfoxide (DMSO) in PBS. 10% DMSO in PBS was used as the vehicle control. Mice received oxytocin intranasally (at approximately 200 μg/kg) thirty minutes prior to behavior. 1.25 μl of oxytocin or vehicle solution was injected into each nostril from P10 pipette. Oxytocin dose was selected according to dosages reported to rescue social behavior in genetic models phenotypically expressing ASD-like behaviors (Penagarikano et al., 2015).

| Compound | reciprocal social interaction ([1]; bacteria in drinking water) | reciprocal social interaction ([1]; bacteria in drinking water, listed as live L. reuteri) | preference for social novelty (time interacting with novel vs familiar mouse) [2] | sociability (time interacting with mouse vs empty cage) [2] | preference for social novelty (time interacting with novel vs familiar mouse) ([2]; listed as live L. reuteri) | sociability (time interacting with mouse vs empty cage) ([2]; listed as live L. reuteri) | preference for social novelty (chamber containing Mouse 2, FIG. 16B) ([2]; in drinking water, 4 weeks) | sociability (chamber containing a mouse, FIG. 16A) ([2]; in drinking water, 4 weeks) | contact duration in reciprocal social interaction test ([1]; intranasal oxytocin) | interaction frequency in reciprocal social interaction test ([1]; intranasal oxytocin) | reciprocal social interaction ([1]; intranasal oxytocin approximately 200 μg/kg, 30 min prior) | reciprocal social interaction ([1]; intranasal oxytocin approximately 200 μg/kg, 30 min prior, listed as Oxytocin) | preference for social novelty [2] | sociability [2] | preference for social novelty ([2]; listed as Oxytocin) | sociability ([2]; listed as Oxytocin) |
| --- | --- | --- | --- | --- | --- | --- | --- | --- | --- | --- | --- | --- | --- | --- | --- | --- |
| Lactobacillus reuteri MM4-1A (ATCC-PTA-6475) [L. reuteri] | rescued | restored reciprocal social interaction | significantly improved | significantly improved sociability | rescued | rescued sociability | improved | improved MHFD offspring sociability | – | – | – | – | – | – | – | – |
| CC[C@H](C)[C@@H]1NC(=O)[C@H](Cc2ccc(O)cc2)NC(=O)[C@@H](N)CSSC[C@@H](C(=O)N2CCC[C@H]2C(=O)N[C@@H](CC(C)C)C(=O)NCC(N)=O)NC(=O)[C@H](CC(N)=O)NC(=O)[C@H](CCC(N)=O)NC1=O [oxytocin] | – | – | – | – | – | – | – | – | improved MHFD offspring contact duration | improved | improved reciprocal social interaction | restored reciprocal social interaction | improved | improved sociability | restored | restored |
